What was measured:
[1] = test system: midkine promoter coupled to a luciferase reporter gene; assay: Midkine promoter-luciferase reporter screen in stably transfected HEK293 cells, dose-response; assay type: cell-based; details: for EC50: Homo sapiens, HEK293 reporter cells, midkine expression upregulated with retinoic acid
Procedure: A library of compounds was screened for activity to reduce expression of midkine in vitro. HEK293 cells were stably transfected with the pGL4 vector comprising a midkine promoter coupled to a luciferase reporter gene. […] Changes in luciferase production were measured to access the inhibitory activity of the test compounds. The primary screen included 44,000 test compounds. Test compounds that reduced cell viability by more than 50% were eliminated from the screen. From the primary screen, 351 test compounds were further examined. From the secondary screen, 78 test compounds were examined using a dose-response assay, and the EC50 for the test compounds was determined.
In order to find a therapeutic compound that inhibits MDK expression, a MDK reporter cell line by stably transfecting HEK293 cells with a MDK promoter-fused luciferase construct was developed. This modified cell line was used to screen 44,000 compounds at the Drug Discovery Center at the University of Cincinnati. See Example 1. Detection of luciferase activity was used to identify MDK inhibitors.

[2] = test system: H441 cells; assay: Hoechst staining for apoptotic morphology in H441 cells; assay type: cell-based, human; details: H441, Hoechst 33342, 48 hours after treatment
Procedure: Hoechst staining: the morphologic characteristics of apoptosis were evaluated using Hoechst 33342 dye (Molecular Probes, Eugene, Oreg.), which stains DNA. Cells were incubated with 1 μg/ml Hoechst dye and then visualized under a fluorescence microscope (IX81, Olympus Medical Systems Corp., Tokyo, Japan) (Ogawa N, et al., Int. J. Cancer. 1997; 73:367-70).

[3] = test system: AKT; assay: Immunoblot of AKT phosphorylation in H441 cells; assay type: cell-based, human; details: H441, dose- and time-dependent
Procedure: (§1) Immunoblot analysis: cells were lysed in ice-cold lysis buffer [1% Triton X-100, 20 mM Tris-HCl (pH 8.0), 137 mM NaCl, 10% glycerol (v/v), 2 mM EDTA, 1 mM sodium orthovanadate (v/v), 1 mM phenylmethylsulfonyl fluoride]. Cell lysates were clarified by centrifugation (10 min at 15,000×g at 4° C.) and protein concentration determined using the BCA protein assay (Thermo Fisher Scientific, Rockford, Ill.). Equal amounts of protein were separated on an SDS-PAGE gel. The gel was electrophoretically transferred to a Hybond PVDF transfer membrane (Amersham, Arlington Heights, Ill.) and incubated with primary and secondary antibodies according to the Supersignal® West Pico chemiluminescence protocol (Pierce, Rockford, Ill.). Antibody specific for β-actin antibody was obtained from Sigma (St. Louis, Mo.) and antibody specific for human MDK was obtained from Abcam (Cambridge, UK). Antibody specific for caspase-3, PI3 kinase p85, phosphorylated-PI3K p85 (Tyr458)/p55 (Tyr199), AKT, phosphorylated-AKT (Ser473), Bad, XIAP, survivin were obtained from Cell Signaling Technology (Beverly, Mass.). Antibody specific for VEGF was purchased from Santa Cruz Biotechnology (Santa Cruz, Calif.). Secondary horseradish peroxidase-conjugated antibodies were obtained from Jackson Immunoresearch Laboratories (West Grove, Pa.). […]

[4] = Systemic toxicity in mice (body weight, serum AST and ALT); assay type: in vivo, BALB/c nude mice
Procedure: (§2) Mouse experiments: human lung cancer xenografts were established in 6-wk-old female BALB/c nude mice (Charles River Laboratories Japan, Kanagawa, Japan) by subcutaneous (s.c.) inoculation of H441 cells (1×10^6/50 μl) mixed with Matrigel® (BD Pharmingen, San Diego, Calif.; 50 μl) into the dorsal flank (Watanabe N, et al., Clin. Cancer Res. 2008; 14:4631-9). The mice were randomly assigned into three groups (n=8 per group) 14 days after tumor inoculations. One group of mice was intraperitonially injected with 100 μl solution containing iMDK (9 mg/kg) three days per week (on days 1, 3, 5, 8, 10) and another group of mice was injected five days per week (on days 1, 2, 3, 4, 5, 8, 9, 10). DMSO was injected into the control group. Tumors were measured two to three times a week, and tumor volume was calculated as a×b^2×0.5, where a and b were large and small diameters, respectively. On day 10, all mice were sacrificed after body weight was measured and tumors were removed and prepared for histology. For analysis of serum AST and ALT, blood was drawn from the heart 48 hours after intraperitonially injected with 100 μl solution containing iMDK (9 mg/kg). DMSO was injected into the control group and four mice were used for each group.

[5] = test system: BAD; assay: Immunoblot of BAD in H441 cells; assay type: cell-based, human; details: H441, dose- and time-dependent
Procedure: as §1

[6] = test system: caspase-3; assay: Immunoblot of caspase-3 cleavage in H441 cells; assay type: cell-based, human; details: H441, even at the lowest concentrations (5 nM), 48 hours after treatment
Procedure: as §1

[7] = test system: XIAP; assay: Immunoblot of XIAP in H441 cells; assay type: cell-based, human; details: H441, dose- and time-dependent
Procedure: as §1

[8] = test system: H520 lung squamous cell carcinoma cells; assay: Cell viability assay, trypan blue exclusion, H520; assay type: cell-based, human; details: H520, 0 to 500 nM, 48 hours after treatment
From the text: (§3) Cell Lines and Culture Conditions: the human pulmonary adenocarcinoma cells H322, H358, H441 and A549 and the human lung squamous cell carcinoma cells H520 were obtained from the American Type Culture Collection (Manassas, Va.) and grown in RPMI 1640 (H322, H358, H520) or high glucose Dulbecco's modified Eagle medium (H441, A549 cells) supplemented with 10% heat-inactivated fetal bovine serum. The human malignant mesothelioma cells ACC-MESO-1 (MESO-1) obtained from JCRB Cell Bank (Osaka, Japan) and the human lung squamous cell carcinoma cells SQ5 were grown in RPMI 1640 supplemented with 10% heat-inactivated fetal bovine serum. The normal human lung fibroblasts (NHLF) obtained from Clonetics (San Diego, Calif.) were grown in high glucose Dulbecco's modified Eagle medium. All cell lines were cultured in 10% CO2 at 37° C.
Cell viability assay: H441 cells, A549 cells, H520 cells, HEK293 cells and NHLF were plated in 24-well plates at a density of 1×10^5 cells and cultured at 37° C. for 24 hours. Medium was removed by aspiration and replaced with fresh culture medium containing iMDK dissolved in DMSO (10, 50, 100, 500 nmol/L). DMSO alone was used as the control. Cells were treated for 48 hours and collected by trypsinization. Viable cells were assessed by trypan blue exclusion. […]

[9] = test system: H441 cells; assay: Flow cytometric analysis for apoptosis (sub-G0/G1 DNA content), H441; assay type: cell-based, human; details: 72 hours, DMSO control 1.24%
Procedure: (§4) Flow cytometric analysis for apoptosis: cells were plated in 24-well plates at a density of 0.5×10^5 cells per well 1 day before the treatments. After 72 hours, cells were harvested and washed once with PBS. Cells were resuspended in PBS containing 0.2% Triton X-100 and 1 mg/ml RNase for 5 min at room temperature and then stained with propidium iodide at 50 μg/ml to determine sub-G0/G1 DNA content using a FACScan. Doublets, cell debris, and fixation artifacts were gated out, and sub-G0/G1 DNA content was determined using Cell Quest Ver. 3.3 software.

[10] = test system: NHLF cells; assay: Flow cytometric analysis for apoptosis (sub-G0/G1 DNA content), NHLF; assay type: cell-based, human; details: DMSO control 0.32%
Procedure: as §4

[11] = test system: H441 lung adenocarcinoma cells; assay: Cell viability assay, trypan blue exclusion, H441; assay type: cell-based, human
From the text: as §3
The following day 100 pmol of Smart Pool MK siRNA or nontargeting siRNA (Dharmacon, Perbio Science, France) was transfected using 2 μl Lipofectamine 2000 (Invitrogen Life Technologies, Carlsbad, Calif.) according to the manufacturer's instructions. […]
Cell viability assay: H441 cells, A549 cells, H520 cells, HEK293 cells and NHLF were plated in 24-well plates at a density of 1×10^5 cells and cultured at 37° C. for 24 hours. […] Viable cells were assessed by trypan blue exclusion. […]

[12] = test system: PI3K; assay: Immunoblot of PI3K phosphorylation in H441 cells; assay type: cell-based, human; details: H441, dose- and time-dependent
Procedure: as §1

[13] = test system: xenografts derived from H441 lung adenocarcinoma cells; assay: H441 lung adenocarcinoma xenograft in nude mice; assay type: in vivo, BALB/c nude mice; details: 9 mg/kg intraperitoneal
Procedure: as §2
For immunohistochemistry, sections were sequentially deparaffinized through a series of xylene, graded ethanol, and water immersion steps. After being autoclaved in 0.2% citrate buffer for 15 minutes, sections were incubated with 3% hydrogen peroxide for 30 minutes to block endogenous peroxidase activity. A primary antibody specific for PI3 kinase p85, phosphorylated-PI3K p85 (Tyr458)/p55 (Tyr199) from Cell Signaling Technology and for MDK from Abcam were used. Specimens were incubated overnight at 4° C. with a 1:200 dilution of antibody followed by three washes with TBS. The slides were treated with streptoavidin-biotin complex (Envision System labeled polymer, horseradish peroxidase (HRP), Dako, Carpinteria, Calif.) for 60 minutes at a dilution of 1:100. […]

[14] = test system: HEK293 embryonic kidney cells; assay: Cell viability assay, trypan blue exclusion, HEK293; assay type: cell-based; details: HEK293, 0 to 500 nM, 48 hours after treatment
Procedure: Cell viability assay: H441 cells, A549 cells, H520 cells, HEK293 cells and NHLF were plated in 24-well plates at a density of 1×10^5 cells and cultured at 37° C. for 24 hours. Medium was removed by aspiration and replaced with fresh culture medium containing iMDK dissolved in DMSO (10, 50, 100, 500 nmol/L). DMSO alone was used as the control. Cells were treated for 48 hours and collected by trypsinization. Viable cells were assessed by trypan blue exclusion. Recombinant MDK was purchased from R&D Systems (Minneapolis, Minn.) and reconstituted in water for block experiments. For MDK block experiments, H441 cells were cultured in Dulbecco's modified Eagle medium supplemented with 1% heat-inactivated fetal bovine overnight and recombinant MDK (25 nM) or/and iMDK (25 nM) was added for an additional 48 hours.

[15] = test system: survivin; assay: Immunoblot of survivin in H441 cells; assay type: cell-based, human; details: H441, dose- and time-dependent
Procedure: as §1

[16] = 48 hours after 9 mg/kg intraperitoneal

Question: For `O=c1oc2ccccc2cc1-c1cn2cc(Cc3ccc(Cl)cc3)sc2n1` [Example compound 1], which EC50 [1] is on record?
Answer: Its EC50 is 14 nM.

Question: What does the source list for `O=c1oc2ccccc2cc1-c1cn2cc(Cc3ccc(F)cc3)sc2n1` [Example compound 2, 3-[2-(4-fluorobenzyl)imidazo[2,1-beta][1,3]thiazol-6-yl]-2H-chromen-2-one]?
Answer: nuclear fragmentation [2]: induced nuclear fragmentation in a dose-dependent manner; Phosphorylation of AKT [3]: suppressed; body weight ([4]; 9 mg/kg intraperitoneal, day 10): did not influence; serum level of ALT [4, 16]: did not influence; serum level of AST [4, 16]: did not influence; BAD expression [5]: induced; cleaved forms of caspase-3 [6]: induced; XIAP expression [7]: reduced; cell growth [8]: dose-dependently inhibited cell growth; activity to reduce expression of midkine (in words) ([1]; reporter screen, dose response): exceptional activity; sub-G0/G1 DNA content ([9]; H441, 10 nM): 37.00%; sub-G0/G1 DNA content ([9]; H441, 25 nM): 60.91%; sub-G0G1 DNA content ([10]; 10 nM): 0.52%; sub-G0G1 DNA content ([10]; 25 nM): 1.51%; cell growth ([11]; H441, 0 to 500 nM, 48 hours after treatment): dose-dependently inhibited cell growth; suppression of cell growth with pretreatment of recombinant MDK ([11]; H441, recombinant MDK 25 nM, iMDK 25 nM, 48 hours): partially blocked; Phosphorylation of PI3K [12]: suppressed; volume of the tumors versus control group ([13]; 3 or 5 times a week): significantly lower; lung tumor growth ([13]; 3 or 5 times a week, from 14 days after inoculation): arrested; Tunel staining, DNA fragmentation in tumors ([13]; xenograft tumors): detected DNA fragmentation; cell growth [14]: dose-dependently inhibited cell growth; survivin expression [15]: reduced

Question: With `O=c1oc2ccccc2cc1-c1cn2cc(Cc3ccc(Br)cc3)sc2n1` [Example compound 3] as the molecule, how does the EC50 [1] read?
Answer: Its EC50 is 12.2 nM.

Question: Which EC50 [1] does the source give for `O=c1oc2ccccc2cc1-c1cn2cc(Cc3cc(Cl)ccc3Cl)sc2n1` [Example compound 4] here?
Answer: Its EC50 is 15.9 nM.

Source: US10391084B2, “Methods and compositions to treat cancer” (CHILDREN'S HOSPITAL MEDICAL CENTER, priority 2013, dated 2019)
